Laboratory results from ChEMBL document CHEMBL5649166, “RIP3 induces apoptosis independent of pronecrotic kinase activity” (Mol Cell, 2014).

Legend:
[1] = molecular target: T1, Beta-adrenergic receptor kinase 1 (Homo sapiens) (UniProt P25098); experiment: Inhibition of human GRK2 using casein as substrate at 1 uM in presence of 32P-ATP by Hotspot assay relative to control; values are per cent of control
T1 sequence (whole entry): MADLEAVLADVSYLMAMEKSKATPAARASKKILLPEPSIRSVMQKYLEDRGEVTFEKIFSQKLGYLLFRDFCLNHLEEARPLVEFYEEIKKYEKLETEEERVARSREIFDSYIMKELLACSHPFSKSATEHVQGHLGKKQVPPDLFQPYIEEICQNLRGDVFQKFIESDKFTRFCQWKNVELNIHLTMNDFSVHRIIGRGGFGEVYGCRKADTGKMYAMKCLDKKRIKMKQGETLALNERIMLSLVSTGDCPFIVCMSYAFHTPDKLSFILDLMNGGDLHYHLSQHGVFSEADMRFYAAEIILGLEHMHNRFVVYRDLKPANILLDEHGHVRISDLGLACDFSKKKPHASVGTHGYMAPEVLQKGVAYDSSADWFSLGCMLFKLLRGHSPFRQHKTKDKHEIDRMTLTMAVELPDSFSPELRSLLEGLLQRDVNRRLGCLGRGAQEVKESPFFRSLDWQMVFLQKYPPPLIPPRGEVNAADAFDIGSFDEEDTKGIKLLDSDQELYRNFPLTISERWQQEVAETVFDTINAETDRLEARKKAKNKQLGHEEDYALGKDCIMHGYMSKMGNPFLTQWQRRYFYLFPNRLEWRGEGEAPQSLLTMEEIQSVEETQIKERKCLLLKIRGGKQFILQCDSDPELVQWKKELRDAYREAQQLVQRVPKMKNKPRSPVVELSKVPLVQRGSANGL

[2] = molecular target: Serine/threonine-protein kinase Nek6 (Homo sapiens) (UniProt Q9HC98); experiment: Inhibition of human NEK6 using casein as substrate at 1 uM in presence of 32P-ATP by Hotspot assay relative to control; values are per cent of control
[3] = molecular target: Calcium/calmodulin-dependent protein kinase type II subunit alpha (Homo sapiens) (UniProt Q9UQM7); experiment: Inhibition of human CAMK2a using KKALRRQETVDAL as substrate at 1 uM in presence of 32P-ATP by Hotspot assay relative to control; values are per cent of control
[4] = molecular target: T2, Dual specificity tyrosine-phosphorylation-regulated kinase 4 (Homo sapiens) (UniProt Q9NR20); experiment: Inhibition of human DYRK4 using RRRFRPASPLRGPPK as substrate at 1 uM in presence of 32P-ATP by Hotspot assay relative to control; values are per cent of control
T2 sequence (whole entry): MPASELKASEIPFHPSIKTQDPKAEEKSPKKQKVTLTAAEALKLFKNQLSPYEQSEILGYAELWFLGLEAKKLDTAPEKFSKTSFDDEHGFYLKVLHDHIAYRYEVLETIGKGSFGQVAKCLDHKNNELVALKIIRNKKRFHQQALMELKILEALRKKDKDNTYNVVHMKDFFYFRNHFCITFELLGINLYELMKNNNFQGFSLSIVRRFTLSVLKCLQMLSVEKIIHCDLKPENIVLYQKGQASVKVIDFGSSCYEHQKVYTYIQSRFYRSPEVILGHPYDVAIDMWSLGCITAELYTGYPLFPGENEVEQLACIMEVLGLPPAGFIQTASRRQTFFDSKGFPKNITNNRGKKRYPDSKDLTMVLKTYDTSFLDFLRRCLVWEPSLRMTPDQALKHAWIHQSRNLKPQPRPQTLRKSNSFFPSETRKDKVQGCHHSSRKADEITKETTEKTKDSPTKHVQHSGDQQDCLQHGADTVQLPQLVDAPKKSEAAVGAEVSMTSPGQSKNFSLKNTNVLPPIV

[5] = molecular target: Insulin receptor (Homo sapiens) (UniProt P06213); experiment: Inhibition of human IR using poly[Glu:Tyr] (4:1) as substrate at 1 uM in presence of 32P-ATP by Hotspot assay relative to control; values are per cent of control
[6] = molecular target: T3, MAP kinase-activated protein kinase 5 (Homo sapiens) (UniProt Q8IW41); experiment: Inhibition of human MAPKAPK5/PRAK using KKLNRTLSVA as substrate at 1 uM in presence of 32P-ATP by Hotspot assay relative to control; values are per cent of control
T3 sequence (whole entry): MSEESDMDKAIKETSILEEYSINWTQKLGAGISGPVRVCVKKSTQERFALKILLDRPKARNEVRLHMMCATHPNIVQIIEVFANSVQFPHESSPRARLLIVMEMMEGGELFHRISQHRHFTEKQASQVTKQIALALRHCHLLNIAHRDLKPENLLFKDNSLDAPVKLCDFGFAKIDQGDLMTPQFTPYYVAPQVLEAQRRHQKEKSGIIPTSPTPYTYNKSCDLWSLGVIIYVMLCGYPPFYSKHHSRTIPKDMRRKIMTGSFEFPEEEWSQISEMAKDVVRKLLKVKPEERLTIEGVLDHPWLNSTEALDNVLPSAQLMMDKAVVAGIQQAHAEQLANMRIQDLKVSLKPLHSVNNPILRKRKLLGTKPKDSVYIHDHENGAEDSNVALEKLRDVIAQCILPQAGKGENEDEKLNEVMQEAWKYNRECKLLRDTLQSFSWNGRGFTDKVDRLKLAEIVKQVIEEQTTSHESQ

[7] = molecular target: T4, 3-phosphoinositide-dependent protein kinase 1 (Homo sapiens) (UniProt O15530); experiment: Inhibition of human PDK1/PDPK1 using KTFCGTPEYLAPEVRREPRILSEEEQEMFRDFDYIADWC as substrate at 1 uM in presence of 32P-ATP by Hotspot assay relative to control; values are per cent of control
T4 sequence (whole entry): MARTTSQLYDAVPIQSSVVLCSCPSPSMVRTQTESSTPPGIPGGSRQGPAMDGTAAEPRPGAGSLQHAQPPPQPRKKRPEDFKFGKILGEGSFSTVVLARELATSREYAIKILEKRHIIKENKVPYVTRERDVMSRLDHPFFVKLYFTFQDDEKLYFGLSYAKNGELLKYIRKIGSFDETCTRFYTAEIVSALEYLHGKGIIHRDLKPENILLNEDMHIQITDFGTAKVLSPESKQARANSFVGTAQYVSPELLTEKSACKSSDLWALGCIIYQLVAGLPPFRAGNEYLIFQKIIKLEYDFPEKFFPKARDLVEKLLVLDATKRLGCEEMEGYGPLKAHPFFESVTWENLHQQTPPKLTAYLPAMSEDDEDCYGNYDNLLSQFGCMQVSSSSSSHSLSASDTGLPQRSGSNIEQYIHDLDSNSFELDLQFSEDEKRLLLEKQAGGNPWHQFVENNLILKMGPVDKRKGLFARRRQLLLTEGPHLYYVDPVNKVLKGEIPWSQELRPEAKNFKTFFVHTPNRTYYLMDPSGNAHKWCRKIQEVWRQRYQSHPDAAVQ

Sequence of Serine/threonine-protein kinase Nek6 (Homo sapiens) (Q9HC98 whole entry): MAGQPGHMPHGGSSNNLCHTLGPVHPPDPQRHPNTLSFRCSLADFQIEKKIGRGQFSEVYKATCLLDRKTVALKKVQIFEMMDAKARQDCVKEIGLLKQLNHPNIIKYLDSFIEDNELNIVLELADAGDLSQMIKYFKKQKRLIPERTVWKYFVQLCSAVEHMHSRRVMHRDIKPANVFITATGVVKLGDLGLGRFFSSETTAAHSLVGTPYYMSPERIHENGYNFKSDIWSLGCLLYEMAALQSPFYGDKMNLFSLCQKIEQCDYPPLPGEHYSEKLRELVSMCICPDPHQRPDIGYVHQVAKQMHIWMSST
Sequence of Calcium/calmodulin-dependent protein kinase type II subunit alpha (Homo sapiens) (Q9UQM7 whole entry): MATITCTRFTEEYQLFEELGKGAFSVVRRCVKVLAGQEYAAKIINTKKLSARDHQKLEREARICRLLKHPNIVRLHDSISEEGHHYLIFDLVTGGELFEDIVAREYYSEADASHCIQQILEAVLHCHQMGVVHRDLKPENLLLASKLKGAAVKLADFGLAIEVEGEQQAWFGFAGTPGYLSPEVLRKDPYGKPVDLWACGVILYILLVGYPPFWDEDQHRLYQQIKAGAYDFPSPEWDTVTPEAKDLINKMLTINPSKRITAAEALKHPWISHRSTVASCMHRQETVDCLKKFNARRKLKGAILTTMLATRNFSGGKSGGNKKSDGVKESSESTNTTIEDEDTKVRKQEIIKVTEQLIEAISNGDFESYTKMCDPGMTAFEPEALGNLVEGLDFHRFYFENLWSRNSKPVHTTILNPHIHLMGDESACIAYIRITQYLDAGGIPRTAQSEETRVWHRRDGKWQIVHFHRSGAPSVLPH
Sequence of Insulin receptor (Homo sapiens) (P06213 28-758 limits assumed): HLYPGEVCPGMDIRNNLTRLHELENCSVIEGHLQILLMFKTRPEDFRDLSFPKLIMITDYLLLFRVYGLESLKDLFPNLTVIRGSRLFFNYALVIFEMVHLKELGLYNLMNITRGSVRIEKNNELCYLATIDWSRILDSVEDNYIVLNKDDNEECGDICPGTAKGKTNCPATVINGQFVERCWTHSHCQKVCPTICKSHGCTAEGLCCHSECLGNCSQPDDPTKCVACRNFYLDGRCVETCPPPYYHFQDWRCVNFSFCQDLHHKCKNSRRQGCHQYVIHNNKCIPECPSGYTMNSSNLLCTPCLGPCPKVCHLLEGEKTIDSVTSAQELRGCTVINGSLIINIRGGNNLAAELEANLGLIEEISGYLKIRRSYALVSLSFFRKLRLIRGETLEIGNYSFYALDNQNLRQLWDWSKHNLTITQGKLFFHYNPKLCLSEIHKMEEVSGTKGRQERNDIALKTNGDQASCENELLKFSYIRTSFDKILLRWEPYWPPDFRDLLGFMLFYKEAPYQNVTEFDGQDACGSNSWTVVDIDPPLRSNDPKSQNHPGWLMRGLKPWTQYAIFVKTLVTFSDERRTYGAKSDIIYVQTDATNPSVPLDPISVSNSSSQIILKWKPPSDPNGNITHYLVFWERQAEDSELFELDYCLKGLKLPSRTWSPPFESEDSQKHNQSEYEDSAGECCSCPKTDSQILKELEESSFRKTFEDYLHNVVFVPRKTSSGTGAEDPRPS
Sequence of Insulin receptor (Homo sapiens) (P06213 763-1382 limits assumed): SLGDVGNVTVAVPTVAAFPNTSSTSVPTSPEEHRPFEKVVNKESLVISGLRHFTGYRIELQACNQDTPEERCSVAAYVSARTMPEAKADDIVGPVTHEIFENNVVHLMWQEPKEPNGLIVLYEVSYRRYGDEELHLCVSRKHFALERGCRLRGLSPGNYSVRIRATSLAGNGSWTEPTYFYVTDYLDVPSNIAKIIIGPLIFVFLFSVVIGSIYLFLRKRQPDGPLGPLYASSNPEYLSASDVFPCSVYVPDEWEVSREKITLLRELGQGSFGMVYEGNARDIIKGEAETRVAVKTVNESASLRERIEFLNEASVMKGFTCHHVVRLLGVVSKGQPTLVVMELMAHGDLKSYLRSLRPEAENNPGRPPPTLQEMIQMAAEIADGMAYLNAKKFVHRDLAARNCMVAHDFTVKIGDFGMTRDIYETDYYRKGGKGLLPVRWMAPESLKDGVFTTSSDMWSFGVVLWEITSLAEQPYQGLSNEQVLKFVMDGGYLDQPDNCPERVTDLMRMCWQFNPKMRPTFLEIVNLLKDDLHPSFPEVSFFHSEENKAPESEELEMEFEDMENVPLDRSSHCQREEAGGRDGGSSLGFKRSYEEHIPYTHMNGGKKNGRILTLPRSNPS

Row | Compound | residual activity [1] [%] | residual activity [2] [%] | residual activity [3] [%] | residual activity [4] [%] | residual activity [5] [%] | residual activity [6] [%] | residual activity [7] [%]
1 | Cc1cc(-c2cnc(N)c3c(-c4ccc5scnc5c4)csc23)n(C)n1 | 101 | 96 | 104 | 98.2 | 101 | 90.5 | 101
2 | CNC(=O)c1ccc2c(c1)ncn2-c1ccc(CC(=O)OC(C)(C)C)cc1 | 97.7 | 104 | 94.7 | 99.6 | 90 | 103 | 100
3 | CC(C)S(=O)(=O)c1ccc2nccc(Nc3ccc4scnc4c3)c2c1 | 101 | 104 | 100 | 102 | 90.4 | 102 | 98.6
